Measurements as given in US20180327367A1, “MACROCYCLIC BROAD SPECTRUM ANTIBIOTICS” (priority 2015, published 2018).
≈ marks a conversion by molar mass, not a printed value.

Columns and labels:
Format in all cases: cell-based
[1] = tested on: Escherichia coli MC4100 harboring the IMP4213 (E. coli IMP); assay: microbe, parasite or virus in culture; conditions: Escherichia coli, 22 h, read-out: MIC (μg/mL) E. coli IMP, E. coli MC4100 IMP4213, increased outer-membrane permeability; 35° C., 22 hours
Protocol: (§1) In vitro antimicrobial activity of each compound was determined by measuring minimal inhibitor concentrations (MICs) using the broth micro-dilution technique as approved by the Clinical and Laboratory Standards Institute (CLSI) (Methods for Dilution Antimicrobial Susceptibility Tests for Bacteria that Grow Aerobically; Approved Standard—Eighth Edition. CLSI document M07-A8. Wayne, Pa.: Clinical and Laboratory Standards; 2009). Antibacterial activity was measure against three strains of bacteria: a Methicillin Resistant Staphylococcus aureus strain USA 300, NRS384 (S. aureus); a strain of Escherichia coli MC4100 harboring the IMP4213 (E. coli IMP), which results in increased outer-membrane permeability (B Martin and Silhavy T. Imp/OstA is required for cell envelope biogenesis in Escherichia coli. (2002) Molecular Microbiology, 45(5), 1289-1302), and Escherichia coli ATCC 25922 (E. coli), a clinically relevant Gram-negative strain. Cells were inoculated onto plates of Trypyticase Soy Agar or Luria Agar respectively and grown at 35° C. for 20 hours. Inocula suspensions were prepared by scraping cells into 1 mL of testing media (cation adjusted Mueller Hinton Broth supplemented with 0.002% v/v Tween-80) and diluting to a final OD600 nm of 0.01.
(§2) Test compounds were prepared in DMSO at a concentration of 10 mg/mL. […] In protocol 2, the compound stocks were diluted into testing media at a concentration of 4 μg/mL and serial 2-fold dilutions were made in the same media, in 96-well U bottom microtiter dishes, for a total of 10 compound concentrations. In protocol 3, compound stocks were diluted into testing media at a concentration of 0.5 μg/mL, with serial 2-fold dilutions conducted as described above. […] Inocula suspensions were added to the 2-fold serial dilutions of test compounds to a final density of OD OD600 nm of 0.0005 and incubated at 35° C. for 22 hours.

[2] = tested on: Methicillin Resistant Staphylococcus aureus strain USA 300, NRS384; assay: Minimum inhibitory concentration, broth micro-dilution (CLSI), S. aureus; conditions: Staphylococcus aureus, MRSA / NRS 384 / USA300, 22 h, MRSA USA 300 NRS384; 35° C., 22 hours; read-out: MIC (μg/mL) S. aureus
Protocol: as §1, §2

[3] = tested on: Escherichia coli ATCC 25922; assay: Minimum inhibitory concentration, broth micro-dilution (CLSI), E. coli; conditions: Escherichia coli, ATCC25922, 22 h, E. coli ATCC 25922; 35° C., 22 hours; read-out: MIC (μg/mL) E. coli
Protocol: Cells were inoculated onto plates of Trypyticase Soy Agar or Luria Agar respectively and grown at 35° C. for 20 hours. Inocula suspensions were prepared by scraping cells into 1 mL of testing media (cation adjusted Mueller Hinton Broth supplemented with 0.002% v/v Tween-80) and diluting to a final OD600 nm of 0.01.
as §2

## Cc1cc(-c2ccc(CC(C)C)cc2)ncc1C(=O)N[C@@H](CCN)C(=O)N(C)[C@@H]1C(=O)N[C@@H](C)C(=O)N[C@H](C(=O)NCC#N)Cc2ccc(OCCN)c(c2)-c2cc1ccc2OCCN [Compound 167]
[1]
  MIC: 0.0049 µg/mL (≈ 0.00551 µM)
[2]
  MIC: 0.023 µg/mL (≈ 0.0259 µM)
[3]
  MIC: 0.14 µg/mL (≈ 0.157 µM)

## Cc1nc(-c2ccc(CC(C)C)cc2)ccc1C(=O)N[C@@H](CCN)C(=O)N(C)[C@@H]1C(=O)N[C@@H](C)C(=O)N[C@H](C(=O)NCC#N)Cc2ccc(OCCN)c(c2)-c2cc1ccc2OCCN [Compound 169]
[1]
  MIC: 0.0078 µg/mL (≈ 0.00877 µM)
[2]
  MIC: 0.023 µg/mL (≈ 0.0259 µM)
[3]
  MIC: 0.13 µg/mL (≈ 0.146 µM)

## Cc1cc(-c2ccc(CC(C)C)cn2)ccc1C(=O)N[C@@H](CCN)C(=O)N(C)[C@@H]1C(=O)N[C@@H](C)C(=O)N[C@H](C(=O)NCC#N)Cc2ccc(OCCN)c(c2)-c2cc1ccc2OCCN [Compound 173]
[1]
  MIC: 0.016 µg/mL (≈ 0.018 µM)
[2]
  MIC: 0.094 µg/mL (≈ 0.106 µM)
[3]
  MIC: 0.31 µg/mL (≈ 0.349 µM)

## Cc1cc(-c2ccc(CC(C)C)nn2)ccc1C(=O)N[C@@H](CCN)C(=O)N(C)[C@@H]1C(=O)N[C@@H](C)C(=O)N[C@H](C(=O)NCC#N)Cc2ccc(OCCN)c(c2)-c2cc1ccc2OCCN [Compound 180]
[1]
  MIC: 0.38 µg/mL (≈ 0.427 µM)
[2]
  MIC: 1 µg/mL (≈ 1.12 µM)
[3]
  MIC: 8 µg/mL (≈ 8.99 µM)

## Cc1cc(-c2ccc(CC(C)C)nc2)ccc1C(=O)N[C@@H](CCN)C(=O)N(C)[C@@H]1C(=O)N[C@@H](C)C(=O)N[C@H](C(=O)NCC#N)Cc2ccc(OCCN)c(c2)-c2cc1ccc2OCCN [Compound 181]
[1]
  MIC: 0.031 µg/mL (≈ 0.0349 µM)
[2]
  MIC: 0.13 µg/mL (≈ 0.146 µM)
[3]
  MIC: 2 µg/mL (≈ 2.25 µM)

## CCCCCCCc1cc(C)c(C(=O)N[C@@H](CCN)C(=O)N(C)[C@@H]2C(=O)N[C@@H](C)C(=O)N[C@H](C(=O)NCC#N)Cc3ccc(OCCN)c(c3)-c3cc2ccc3OCCN)c(C)c1 [Compound 189]
[1]
  MIC: 0.023 µg/mL (≈ 0.0265 µM)
[2]
  MIC: 0.031 µg/mL (≈ 0.0357 µM)
[3]
  MIC: 0.19 µg/mL (≈ 0.219 µM)

## CCCCc1cccc(C(=O)N[C@@H](CCCN)C(=O)N(C)[C@@H]2C(=O)N[C@@H](C)C(=O)N[C@H](C(=O)NCC#N)Cc3ccc(OCCN)c(c3)-c3cc2ccc3OCCN)c1C [Compound 206]
[1]
  MIC: 0.094 µg/mL (≈ 0.114 µM)
[2]
  MIC: 0.38 µg/mL (≈ 0.46 µM)
[3]
  MIC: 16 µg/mL (≈ 19.4 µM)

## CCCCc1ccc(C)c(C(=O)N[C@@H](CCCN)C(=O)N(C)[C@@H]2C(=O)N[C@@H](C)C(=O)N[C@H](C(=O)NCC#N)Cc3ccc(OCCN)c(c3)-c3cc2ccc3OCCN)c1 [Compound 207]
[1]
  MIC: 0.063 µg/mL (≈ 0.0763 µM)
[2]
  MIC: 1.5 µg/mL (≈ 1.82 µM)
[3]
  MIC: 16 µg/mL (≈ 19.4 µM)

## CCCCCCCCc1ccc(C(=O)N[C@@H](CCN)C(=O)N(C)[C@@H]2C(=O)N[C@@H](C)C(=O)N[C@H](C(=O)NCC#N)Cc3ccc(OCCN)c(c3)-c3cc2ccc3OCCN)c(Br)c1 [Compound 211]
[1]
  MIC: 0.055 µg/mL (≈ 0.059 µM)
[2]
  MIC: 0.063 µg/mL (≈ 0.0675 µM)
[3]
  MIC: 0.11 µg/mL (≈ 0.118 µM)

## Cc1cc(-c2ccc(CC(C)C)cc2)ccc1C(=O)N[C@@H](CC(N)=O)C(=O)N(C)[C@@H]1C(=O)N[C@@H](C)C(=O)N[C@H](C(=O)NCC#N)Cc2ccc(OCCN)c(c2)-c2cc1ccc2OCCN [Compound 240]
[1]
  MIC: 0.094 µg/mL (≈ 0.104 µM)
[2]
  MIC: 0.19 µg/mL (≈ 0.211 µM)
[3]
  MIC: 1.5 µg/mL (≈ 1.66 µM)

## CCCCCCCCc1ccc(C(=O)N[C@@H](CCC(N)=O)C(=O)N(C)[C@@H]2C(=O)N[C@@H](C)C(=O)N[C@H](C(=O)NCC#N)Cc3ccc(OCCN)c(c3)-c3cc2ccc3OCCN)c(C)c1 [Compound 247]
[1]
  MIC: 0.094 µg/mL (≈ 0.105 µM)
[2]
  MIC: 0.094 µg/mL (≈ 0.105 µM)
[3]
  MIC: 2 µg/mL (≈ 2.23 µM)

## Cc1cc(-c2ccc(CC(C)C)cc2)ccc1C(=O)N[C@@H](CCC(N)=O)C(=O)N(C)[C@@H]1C(=O)N[C@@H](C)C(=O)N[C@H](C(=O)NCC#N)Cc2ccc(OCCN)c(c2)-c2cc1ccc2OCCN [Compound 248]
[1]
  MIC: 0.094 µg/mL (≈ 0.103 µM)
[2]
  MIC: 0.19 µg/mL (≈ 0.207 µM)
[3]
  MIC: 1 µg/mL (≈ 1.09 µM)

## CCCCCCCCc1ccc(C(=O)N[C@H](C)C(=O)N(C)[C@@H]2C(=O)N[C@@H](C)C(=O)N[C@H](C(=O)NCC#N)Cc3ccc(OCCN)c(c3)-c3cc2ccc3OCCN)c(C)c1 [Compound 251]
[1]
  MIC: 4 µg/mL (≈ 4.77 µM)
[2]
  MIC: 4 µg/mL (≈ 4.77 µM)
[3]
  MIC: 8 µg/mL (≈ 9.53 µM)

## CCCCCCCCc1ccc(C(=O)NCC(=O)N(C)[C@@H]2C(=O)N[C@@H](C)C(=O)N[C@H](C(=O)NCC#N)Cc3ccc(OCCN)c(c3)-c3cc2ccc3OCCN)c(C)c1 [Compound 252]
[1]
  MIC: 0.023 µg/mL (≈ 0.0279 µM)
[2]
  MIC: 0.25 µg/mL (≈ 0.303 µM)
[3]
  MIC: 2 µg/mL (≈ 2.42 µM)

## C[C@@H]1NC(=O)[C@@H](N(C)C(=O)[C@H](CCO)NC(=O)c2ccc(-c3ccc(Cl)cc3)cc2)c2ccc(OCCN)c(c2)-c2cc(ccc2OCCN)C[C@@H](C(=O)NCC#N)NC1=O [Compound 259]
[1]
  MIC: 0.25 µg/mL (≈ 0.293 µM)
[2]
  MIC: 0.5 µg/mL (≈ 0.586 µM)
[3]
  MIC: 64 µg/mL (≈ 75 µM)

## Cc1cc(OCC2CCC(F)(F)CC2)ccc1C(=O)N[C@@H](CCN)C(=O)N(C)[C@@H]1C(=O)N[C@@H](C)C(=O)N[C@H](C(=O)NCC#N)Cc2ccc(OCCN)c(c2)-c2cc1ccc2OCCN [Compound 278]
[1]
  MIC: 0.13 µg/mL (≈ 0.144 µM)
[2]
  MIC: 0.5 µg/mL (≈ 0.553 µM)
[3]
  MIC: 4 µg/mL (≈ 4.42 µM)

## C[C@@H]1NC(=O)[C@@H](N(C)C(=O)[C@H](CCN)NC(=O)c2ccc(OCC(C)(C)C)cc2Cl)c2ccc(OCCN)c(c2)-c2cc(ccc2OCCN)C[C@@H](C(=O)NCC#N)NC1=O [Compound 279]
[1]
  MIC: 0.02 µg/mL (≈ 0.0232 µM)
[2]
  MIC: 0.13 µg/mL (≈ 0.151 µM)
[3]
  MIC: 0.5 µg/mL (≈ 0.58 µM)

## C=CCC(C)(C)COc1ccc(C(=O)N[C@@H](CCN)C(=O)N(C)[C@@H]2C(=O)N[C@@H](C)C(=O)N[C@H](C(=O)NCC#N)Cc3ccc(OCCN)c(c3)-c3cc2ccc3OCCN)c(C)c1 [Compound 285]
[1]
  MIC: 0.0078 µg/mL (≈ 0.00899 µM)
[2]
  MIC: 0.063 µg/mL (≈ 0.0726 µM)
[3]
  MIC: 0.75 µg/mL (≈ 0.864 µM)

## Cc1cc(OCC2C[C@H]3CC[C@@H]2C3)ccc1C(=O)N[C@@H](CCN)C(=O)N(C)[C@@H]1C(=O)N[C@@H](C)C(=O)N[C@H](C(=O)NCC#N)Cc2ccc(OCCN)c(c2)-c2cc1ccc2OCCN (stereo partly drawn) [Compound 287]
[1]
  MIC: 0.0078 µg/mL (≈ 0.00886 µM)
[2]
  MIC: 0.094 µg/mL (≈ 0.107 µM)
[3]
  MIC: 0.38 µg/mL (≈ 0.432 µM)

## CCCCCCCOc1ccc(C(=O)N[C@@H](CCN)C(=O)N(C)[C@@H]2C(=O)N[C@@H](C)C(=O)N[C@H](C(=O)NCC#N)Cc3ccc(OCCN)c(c3)-c3cc2ccc3OCCN)c(C)c1C [Compound 294]
[1]
  MIC: 0.0078 µg/mL (≈ 0.00882 µM)
[2]
  MIC: 0.063 µg/mL (≈ 0.0713 µM)
[3]
  MIC: 0.25 µg/mL (≈ 0.283 µM)

## C[C@@H]1NC(=O)[C@@H](N(C)C(=O)[C@H](CCN)NC(=O)c2ccc(OCC(C)(C)C)c3ccccc23)c2ccc(OCCN)c(c2)-c2cc(ccc2OCCN)C[C@@H](C(=O)NCC#N)NC1=O [Compound 296]
[1]
  MIC: 0.031 µg/mL (≈ 0.0353 µM)
[2]
  MIC: 0.047 µg/mL (≈ 0.0535 µM)
[3]
  MIC: 2 µg/mL (≈ 2.28 µM)

## CCCCCCOCc1ccc(C(=O)N[C@@H](CCN)C(=O)N(C)[C@@H]2C(=O)N[C@@H](C)C(=O)N[C@H](C(=O)NCC#N)Cc3ccc(OCCN)c(c3)-c3cc2ccc3OCCN)c(Cl)c1 [Compound 297]
[1]
  MIC: 0.0078 µg/mL (≈ 0.00876 µM)
[2]
  MIC: 0.063 µg/mL (≈ 0.0707 µM)
[3]
  MIC: 1 µg/mL (≈ 1.12 µM)

## CCCCCCCn1cc(C(=O)N[C@@H](CCN)C(=O)N(C)[C@@H]2C(=O)N[C@@H](C)C(=O)N[C@H](C(=O)NCC#N)Cc3ccc(OCCN)c(c3)-c3cc2ccc3OCCN)c(C)nc1=O [Compound 301]
[1]
  MIC: 4 µg/mL (≈ 4.59 µM)
[2]
  MIC: 4 µg/mL (≈ 4.59 µM)
[3]
  MIC: > 64 µg/mL

## Cc1nc(C#CC2CCCCC2)ncc1C(=O)N[C@@H](CCN)C(=O)N(C)[C@@H]1C(=O)N[C@@H](C)C(=O)N[C@H](C(=O)NCC#N)Cc2ccc(OCCN)c(c2)-c2cc1ccc2OCCN [Compound 312]
[1]
  MIC: 0.023 µg/mL (≈ 0.0266 µM)
[2]
  MIC: 0.25 µg/mL (≈ 0.289 µM)
[3]
  MIC: 0.5 µg/mL (≈ 0.579 µM)

## CCCCCCCc1ccc(C(=O)N[C@@H](CCN)C(=O)N(C)[C@@H]2C(=O)N[C@@H](C)C(=O)N[C@H](C(=O)NCC#N)Cc3ccc(O)c(c3)-c3cc2ccc3OCCN)c(C)c1 [Compound 314]
[1]
  MIC: 0.023 µg/mL (≈ 0.0284 µM)
[2]
  MIC: 0.078 µg/mL (≈ 0.0962 µM)
[3]
  MIC: 0.44 µg/mL (≈ 0.543 µM)
